Molecular target: T1, CFTR (Homo sapiens, UniProt P13569, DEL508-508)
T1 construct: Primary CF airway epithelial cells were obtained from the UNC Cystic Fibrosis Tissue Procurement and Cell Culture Core; host or cells: primary CF airway epithelial cells
Experiment: Equivalent current assay in Primary CF airway epithelial cells (NAUC)
Assay type: cell-based
Settings: 24 h, normalized to VX809 (3 μM) positive control; for Nauc @ 3 μM: 3 μM test compound; for Nauc @ 10 μM: 10 μM test compound
Outline: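 Primary CF airway epithelia differentiated ≥4 weeks at air-liquid interface, treated basolaterally 24 h at 37 °C with test compounds in combination with VX809, 0.1% DMSO vehicle. Equivalent current recorded after 5 μM benzamil, 10 μM forskolin plus 1 μM VX770, then CFTR-172/bumetanide 20 μM; vehicle-subtracted AUC normalized to 3 μM VX809 (NAUC), median of n≥4, sigmoid fit for EC50.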

T1 sequence (P13569 with tags, fused parts or gaps DEL508-508): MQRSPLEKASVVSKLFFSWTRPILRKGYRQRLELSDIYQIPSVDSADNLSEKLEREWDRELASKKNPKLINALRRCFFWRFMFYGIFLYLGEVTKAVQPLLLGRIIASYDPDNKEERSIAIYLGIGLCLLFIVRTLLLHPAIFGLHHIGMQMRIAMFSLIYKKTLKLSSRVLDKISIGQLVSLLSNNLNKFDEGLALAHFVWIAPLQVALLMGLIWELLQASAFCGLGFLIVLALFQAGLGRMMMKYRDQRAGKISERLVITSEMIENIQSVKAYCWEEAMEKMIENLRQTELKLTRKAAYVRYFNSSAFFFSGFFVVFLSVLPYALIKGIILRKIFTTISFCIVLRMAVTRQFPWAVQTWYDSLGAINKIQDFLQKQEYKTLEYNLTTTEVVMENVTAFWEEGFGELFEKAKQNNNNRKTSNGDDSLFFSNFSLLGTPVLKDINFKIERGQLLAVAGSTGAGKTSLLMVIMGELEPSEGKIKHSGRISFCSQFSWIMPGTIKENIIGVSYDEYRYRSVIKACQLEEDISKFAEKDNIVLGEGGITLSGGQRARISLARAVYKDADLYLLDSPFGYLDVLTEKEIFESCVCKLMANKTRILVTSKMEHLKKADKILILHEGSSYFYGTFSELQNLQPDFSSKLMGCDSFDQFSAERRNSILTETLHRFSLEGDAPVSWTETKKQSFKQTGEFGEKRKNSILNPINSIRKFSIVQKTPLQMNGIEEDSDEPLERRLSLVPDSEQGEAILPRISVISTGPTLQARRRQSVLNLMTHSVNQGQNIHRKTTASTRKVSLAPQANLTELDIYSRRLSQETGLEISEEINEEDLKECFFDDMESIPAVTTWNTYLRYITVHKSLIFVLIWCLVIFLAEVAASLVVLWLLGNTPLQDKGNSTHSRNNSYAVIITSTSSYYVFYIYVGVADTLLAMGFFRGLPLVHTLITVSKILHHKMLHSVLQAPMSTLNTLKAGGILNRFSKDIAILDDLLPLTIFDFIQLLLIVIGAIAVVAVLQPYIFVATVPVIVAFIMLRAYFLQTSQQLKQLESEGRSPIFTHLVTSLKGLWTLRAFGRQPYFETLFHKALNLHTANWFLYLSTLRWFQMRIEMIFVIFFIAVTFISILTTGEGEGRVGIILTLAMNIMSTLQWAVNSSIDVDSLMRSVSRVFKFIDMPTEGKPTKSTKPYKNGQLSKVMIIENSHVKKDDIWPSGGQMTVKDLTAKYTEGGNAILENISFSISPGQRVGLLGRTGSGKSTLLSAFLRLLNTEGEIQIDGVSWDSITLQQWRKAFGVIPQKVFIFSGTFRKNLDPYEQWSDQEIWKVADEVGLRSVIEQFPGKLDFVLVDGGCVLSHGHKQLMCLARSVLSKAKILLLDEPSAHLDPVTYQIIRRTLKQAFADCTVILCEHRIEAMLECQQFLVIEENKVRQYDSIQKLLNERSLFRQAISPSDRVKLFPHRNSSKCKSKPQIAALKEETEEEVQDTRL

SMILES: Cc1ccc(N2C(=O)C3C4CCCN4C4(C(=O)Nc5c(C)cccc54)C3C2=O)c(Cl)c1 (stereo not drawn) [Example 128]
- Nauc @ 3 μM: ++ (NAUC “++” refers to an observed NAUC 170-140% of positive control)
- Nauc @ 10 μM: + (NAUC “+” refers to an observed NAUC <140% of positive control)

SMILES: O=C1C2C(Cc3ccccn3)NC3(C(=O)Nc4c(Cl)cc(Cl)cc43)C2C(=O)N1c1cc(Cl)cc(Cl)c1 (stereo not drawn) [Example 203]
- Nauc @ 3 μM: ++ (NAUC “++” refers to an observed NAUC 170-140% of positive control)
- Nauc @ 10 μM: ++ (NAUC “++” refers to an observed NAUC 170-140% of positive control)

SMILES: O=C1C2C(Cc3ccc(F)cc3)NC3(C(=O)Nc4c(Cl)cc(Cl)cc43)C2C(=O)N1c1cc(Cl)cc(Cl)c1 (stereo not drawn) [Example 196]
- Nauc @ 3 μM: + (NAUC “+” refers to an observed NAUC <140% of positive control)
- Nauc @ 10 μM: ++ (NAUC “++” refers to an observed NAUC 170-140% of positive control)

SMILES: O=C1C2C3C[C@H](O)CN3C3(C(=O)Nc4c(Cl)cc(Cl)cc43)C2C(=O)N1c1cc(Cl)c(OC(F)F)c(Cl)c1 (stereo partly drawn) [Example 244]
- Nauc @ 3 μM: ++ (NAUC “++” refers to an observed NAUC 170-140% of positive control)
- Nauc @ 10 μM: ++ (NAUC “++” refers to an observed NAUC 170-140% of positive control)

SMILES: O=C1C2C3C[C@H](O)CN3C3(C(=O)Nc4c(Cl)cc(Cl)cc43)C2C(=O)N1c1cc(Cl)c(O)c(Cl)c1 (stereo partly drawn) [Example 82]
- Nauc @ 3 μM: + (NAUC “+” refers to an observed NAUC <140% of positive control)
- Nauc @ 10 μM: ++ (NAUC “++” refers to an observed NAUC 170-140% of positive control)

SMILES: COc1cc(Cl)cc(N2C(=O)C3C4C[C@](C)(O)CN4C4(C(=O)Nc5c(Cl)cc(Cl)cc54)C3C2=O)c1 (single isomer, unassigned) [Example 256]
- Nauc @ 3 μM: ++ (NAUC “++” refers to an observed NAUC 170-140% of positive control)
- Nauc @ 10 μM: +++ (NAUC “+++” refers to an observed NAUC >170% of positive control)

SMILES: COc1c(Cl)cc(N2C(=O)C3C4CC(=C(F)F)CN4C4(C(=O)Nc5c(Cl)cc(Cl)cc54)C3C2=O)cc1Cl (stereo not drawn) [Example 121]
- Nauc @ 3 μM: ++ (NAUC “++” refers to an observed NAUC 170-140% of positive control)
- Nauc @ 10 μM: ++ (NAUC “++” refers to an observed NAUC 170-140% of positive control)

SMILES: [2H]C12C(=O)N(c3cc(Cl)cc(OC)c3)C(=O)C1([2H])C1(C(=O)Nc3c(Cl)cc(Cl)cc31)N1C[C@@H](F)CC12 (stereo partly drawn) [Example 145]
- Nauc @ 3 μM: + (NAUC “+” refers to an observed NAUC <140% of positive control)
- Nauc @ 10 μM: +++ (NAUC “+++” refers to an observed NAUC >170% of positive control)

SMILES: COc1cc(Cl)cc(N2C(=O)C3C4C[C@](C)(F)CN4C4(C(=O)Nc5c(Cl)cc(Cl)cc54)C3C2=O)c1 (single isomer, unassigned) [Example 254]
- Nauc @ 3 μM: +++ (NAUC “+++” refers to an observed NAUC >170% of positive control)
- Nauc @ 10 μM: +++ (NAUC “+++” refers to an observed NAUC >170% of positive control)

SMILES: N#Cc1ccc(CC2NC3(C(=O)Nc4c(Cl)cc(Cl)cc43)C3C(=O)N(c4cc(Cl)cc(Cl)c4)C(=O)C23)cc1 (stereo not drawn) [Example 189]
- Nauc @ 3 μM: + (NAUC “+” refers to an observed NAUC <140% of positive control)
- Nauc @ 10 μM: +++ (NAUC “+++” refers to an observed NAUC >170% of positive control)

SMILES: O=C1C2C3CCCN3C3(C(=O)Nc4ccc(C(F)(F)F)cc43)C2C(=O)N1c1cc(Cl)cc(Cl)c1 (stereo not drawn) [Example 30]
- Nauc @ 3 μM: ++ (NAUC “++” refers to an observed NAUC 170-140% of positive control)
- Nauc @ 10 μM: +++ (NAUC “+++” refers to an observed NAUC >170% of positive control)

SMILES: COc1c(Cl)cc(N2C(=O)C3C4C[C@](C)(O)CN4C4(C(=O)Nc5c(Cl)cc(Cl)cc54)C3C2=O)cc1Cl (stereo partly drawn) [Example 159]
- Nauc @ 3 μM: +++ (NAUC “+++” refers to an observed NAUC >170% of positive control)
- Nauc @ 10 μM: +++ (NAUC “+++” refers to an observed NAUC >170% of positive control)

SMILES: O=C1C2C3C[C@H](O)CN3C3(C(=O)Nc4c(Cl)cc(Cl)cc43)C2C(=O)N1c1cc(Cl)cc(Cl)c1 (single isomer, unassigned) [Example 46]
- Nauc @ 3 μM: ++ (NAUC “++” refers to an observed NAUC 170-140% of positive control)
- Nauc @ 10 μM: + (NAUC “+” refers to an observed NAUC <140% of positive control)

SMILES: O=C1C2C(Cc3ccccc3Cl)NC3(C(=O)Nc4c(Cl)cc(Cl)cc43)C2C(=O)N1c1cc(Cl)cc(Cl)c1 (stereo not drawn) [Example 236]
- Nauc @ 3 μM: +++ (NAUC “+++” refers to an observed NAUC >170% of positive control)
- Nauc @ 10 μM: ++ (NAUC “++” refers to an observed NAUC 170-140% of positive control)

SMILES: CCC(C)C1NC2(C(=O)Nc3c(Cl)cc(Cl)cc32)C2C(=O)N(c3cc(Cl)cc(OC)c3)C(=O)C12 (stereo not drawn) [Example 7, 3′-(Sec-butyl)-5,7-dichloro-5′-(3-chloro-5-methoxyphenyl)-2′,3′,3a′,6a′-tetrahydro-4′H-spiro[indoline-3,1′-pyrrolo[3,4-c]pyrrole]-2,4′,6′(5′H)-trione]
- Nauc @ 3 μM: ++ (NAUC “++” refers to an observed NAUC 170-140% of positive control)
- Nauc @ 10 μM: ++ (NAUC “++” refers to an observed NAUC 170-140% of positive control)

SMILES: O=C1C2C3C[C@H](O)CN3C3(C(=O)Nc4c(Cl)cc(Cl)cc43)C2C(=O)N1c1cc(Br)cc(Br)c1 (single isomer, unassigned) [Example 56]
- Nauc @ 3 μM: ++ (NAUC “++” refers to an observed NAUC 170-140% of positive control)
- Nauc @ 10 μM: +++ (NAUC “+++” refers to an observed NAUC >170% of positive control)

SMILES: COc1c(Cl)cc(N2C(=O)C3C4CC(F)(F)CN4C4(C(=O)Nc5c(Cl)cc(Cl)cc54)C3C2=O)cc1Cl (stereo not drawn) [Example 194]
- Nauc @ 3 μM: +++ (NAUC “+++” refers to an observed NAUC >170% of positive control)
- Nauc @ 10 μM: ++ (NAUC “++” refers to an observed NAUC 170-140% of positive control)

SMILES: Cc1cccc(N2C(=O)C3C4CCCN4C4(C(=O)Nc5c(Cl)cc(Cl)cc54)C3C2=O)n1 (stereo not drawn) [Example 183]
- Nauc @ 3 μM: ++ (NAUC “++” refers to an observed NAUC 170-140% of positive control)
- Nauc @ 10 μM: + (NAUC “+” refers to an observed NAUC <140% of positive control)

SMILES: O=C1C2C3CCCN3C3(C(=O)Nc4c(Cl)cc(F)cc43)C2C(=O)N1c1cc(F)cc(Cl)c1 (stereo not drawn) [Example 36]
- Nauc @ 3 μM: + (NAUC “+” refers to an observed NAUC <140% of positive control)
- Nauc @ 10 μM: +++ (NAUC “+++” refers to an observed NAUC >170% of positive control)

SMILES: C[C@]1(OCc2ccccc2)CC2C3C(=O)N(c4cc(Cl)cc(Cl)c4)C(=O)C3C3(C(=O)Nc4c(Cl)cc(Cl)cc43)N2C1 (single isomer, unassigned) [Example 239]
- Nauc @ 3 μM: ++ (NAUC “++” refers to an observed NAUC 170-140% of positive control)
- Nauc @ 10 μM: ++ (NAUC “++” refers to an observed NAUC 170-140% of positive control)

SMILES: C[C@]1(O)CC2C3C(=O)N(c4cc(Cl)c(OC(F)F)c(Cl)c4)C(=O)C3C3(C(=O)Nc4c(Cl)cc(Cl)cc43)N2C1 (stereo partly drawn) [Example 226]
- Nauc @ 3 μM: ++ (NAUC “++” refers to an observed NAUC 170-140% of positive control)
- Nauc @ 10 μM: ++ (NAUC “++” refers to an observed NAUC 170-140% of positive control)

SMILES: COc1c(Cl)cc(N2C(=O)C3C4C[C@H](C(F)(F)F)CN4C4(C(=O)Nc5c(Cl)cc(Cl)cc54)C3C2=O)cc1Cl (stereo partly drawn) [Example 245]
- Nauc @ 3 μM: +++ (NAUC “+++” refers to an observed NAUC >170% of positive control)
- Nauc @ 10 μM: +++ (NAUC “+++” refers to an observed NAUC >170% of positive control)

SMILES: C=C1CC2C3C(=O)N(c4cc(Cl)cc(Cl)c4)C(=O)C3C3(C(=O)Nc4c(Cl)cc(Cl)cc43)N2C1 (stereo not drawn) [Example 55]
- Nauc @ 3 μM: + (NAUC “+” refers to an observed NAUC <140% of positive control)
- Nauc @ 10 μM: +++ (NAUC “+++” refers to an observed NAUC >170% of positive control)

SMILES: O=C1C2C3C[C@H](F)CN3C3(C(=O)Nc4c(Cl)cc(Cl)cc43)C2C(=O)N1c1cc(Cl)cc(Cl)c1 (single isomer, unassigned) [Example 243]
- Nauc @ 3 μM: +++ (NAUC “+++” refers to an observed NAUC >170% of positive control)
- Nauc @ 10 μM: +++ (NAUC “+++” refers to an observed NAUC >170% of positive control)

SMILES: CC(C)CC1NC2(C(=O)Nc3c(Cl)cc(Cl)cc32)C2C(=O)N(c3cc(Cl)cc(Cl)c3)C(=O)C12 (stereo not drawn) [Example 164]
- Nauc @ 3 μM: ++ (NAUC “++” refers to an observed NAUC 170-140% of positive control)
- Nauc @ 10 μM: +++ (NAUC “+++” refers to an observed NAUC >170% of positive control)

SMILES: C[C@]1(O)CC2C3C(=O)N(c4cc(Cl)cc(Cl)n4)C(=O)C3C3(C(=O)Nc4c(Cl)cc(Cl)cc43)N2C1 (stereo partly drawn) [Example 172]
- Nauc @ 3 μM: ++ (NAUC “++” refers to an observed NAUC 170-140% of positive control)
- Nauc @ 10 μM: +++ (NAUC “+++” refers to an observed NAUC >170% of positive control)

SMILES: CC12C(=O)N(c3cc(Cl)cc(Cl)c3)C(=O)C1C1(C(=O)Nc3c(Cl)cc(Cl)cc31)N1CCCC12 (single isomer, unassigned) [Example 54]
- Nauc @ 3 μM: ++ (NAUC “++” refers to an observed NAUC 170-140% of positive control)
- Nauc @ 10 μM: + (NAUC “+” refers to an observed NAUC <140% of positive control)
